pEC50, pIC50: −log10 of the molar value.

Broadly, the pIC50 is the negative decadic logarithm of the IC50, by convention in mol/L. What is called pEC50 is the EC50 on a negative log10 scale, so that one unit is a factor of ten.

In assay [1] the target is T1, human Cot catalytic domain (30-397 amino acids) (Homo sapiens, UniProt P41279).
T1 construct: Purified recombinant human Cot catalytic domain (30-397 amino acids) was purchased from Cama Biosciences; purchased Cama Biosciences (so in the source)
T1 sequence (P41279 30-397): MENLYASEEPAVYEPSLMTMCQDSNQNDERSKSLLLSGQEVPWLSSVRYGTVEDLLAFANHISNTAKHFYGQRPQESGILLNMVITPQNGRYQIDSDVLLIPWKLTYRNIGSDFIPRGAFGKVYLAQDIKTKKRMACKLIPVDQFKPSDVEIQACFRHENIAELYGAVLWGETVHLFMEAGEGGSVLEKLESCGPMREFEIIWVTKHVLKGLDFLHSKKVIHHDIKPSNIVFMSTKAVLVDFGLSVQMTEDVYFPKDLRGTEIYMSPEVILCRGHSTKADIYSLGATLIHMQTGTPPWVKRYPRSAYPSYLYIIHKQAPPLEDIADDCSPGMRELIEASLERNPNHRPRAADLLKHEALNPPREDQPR
Briefly: High Throughput Cot Biochemical Assay (KinEASE TR-FRET). Conditions: Cot KinEASE TR-FRET, 400 μM ATP; read-out: IC50 HTRF. Summed up:
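Reaction of 5 nM recombinant human Cot catalytic domain (aa 30-397) with 1 μM STK3 peptide (XL665-labeled) and 400 μM ATP in 10 mM MOPS pH 7.0, 10 mM MgOAc, 1 mM DTT, 0.5 mg/mL BSA, 0.1% DMSO. Phosphopeptide detected by TR-FRET with europium anti-phospho antibody.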

The test system of assay [2] is TNFα production in LPS-stimulated human monocytes. Briefly: Cot Monocyte TNFα Cell Based Assay. As to conditions: Homo sapiens, Monocyte, LPS-stimulated human monocytes, TNFα TR-FRET; read-out: EC50 TNF. The gist of the method:
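Cells at 5,000/well were pretreated with compound for 1 h at 37 °C (0.5% DMSO final), then stimulated with 50 pg/ml LPS for 4 h at 37 °C. Supernatant TNFα was measured by two-antibody TR-FRET after overnight room-temperature incubation; values are percent of control between unstimulated and stimulated wells.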

In the case of `Cc1c(-c2cn(C)cn2)cccc1[C@H](Nc1cc(C#N)c2ncc(C#N)c(NCC(C)(C)C)c2c1)c1cn(C2(C(F)(F)F)CC2)nn1` [Example 1145, (S)-6-(((2-methyl-3-(1-methyl-1H-imidazol-4-yl)phenyl)(1-(1-(trifluoromethyl)cyclopropyl)-1H-1,2,3-triazol-4-yl)methyl)amino)-4-(neopentylamino)quinoline-3,8-dicarbonitrile], the pIC50 in assay [1] was 8.30. Besides, the pEC50 in assay [2] is 7.00.
On to `Cc1c(C#N)cccc1[C@H](Nc1cc(C#N)c2ncc(C#N)c(NCC(C)(C)C(F)(F)F)c2c1)c1cn(C2(C)CC2)nn1` [Example 1146, (S)-6-(((3-cyano-2-methylphenyl)(1-(1-methylcyclopropyl)-1H-1,2,3-triazol-4-yl)methyl)amino)-4-((3,3,3-trifluoro-2,2-dimethylpropyl)amino)quinoline-3,8-dicarbonitrile], for which the pIC50 in assay [1] is 8.70. Besides, the pEC50 in assay [2] is 7.48.
For the molecule `Cc1c(C#N)cccc1[C@H](Nc1cc(C#N)c2ncc(C#N)c(NCC(C)(C)C)c2c1)c1cn(C2(CF)CC2)nn1` [Example 1147, (S)-6-(((3-cyano-2-methylphenyl)(1-(1-(fluoromethyl)cyclopropyl)-1H-1,2,3-triazo1-4-yl)methyl)amino)-4-(neopentylamino)quinoline-3,8-dicarbonitrile], in assay [1], the pIC50 is 8.70. In assay [2], the pEC50 is 7.82.
For `Cc1c(C#N)cccc1[C@H](Nc1cc(C#N)c2ncc(C#N)c(NCC(C)(C)C)c2c1)c1cn(C2(C)CC2)nn1` [Example 1148, (S)-6-(((3-cyano-2-methylphenyl)(1-(1-methylcyclopropyl)-1H-1,2,3-triazol-4-yl)methyl)amino)-4-(neopentylamino)quinoline-3,8-dicarbonitrile] the same measures were 8.70 and 7.70.
For the molecule `Cc1c(C#N)cccc1[C@H](Nc1cc(C#N)c2ncc(C#N)c(NCC(C)(C)C)c2c1)c1cn(C(CF)CF)nn1` [Example 1149, (S)-6-(((3-cyano-2-methylphenyl)(1-(1,3-difluoropropan-2-yl)-1H-1,2,3-triazol-4-yl)methyl)amino)-4-(neopentylamino)quinoline-3,8-dicarbonitrile], in assay [1], the negative logarithm of the IC50 (pIC50) is 8.40. Also, in assay [2], the negative-log EC50 (pEC50) is 7.35.
Regarding `Cc1c(C#N)cccc1[C@H](Nc1cc(C#N)c2ncc(C#N)c(NCC(C)(C)C)c2c1)c1cn([C@@H](C)CF)nn1` [Example 1150, 6-(((S)-(3-cyano-2-methylphenyl)(1-((S)-1-fluoropropan-2-yl)-1H-1,2,3-triazol-4-yl)methyl)amino)-4-(neopentylamino)quinoline-3,8-dicarbonitrile], the pIC50 in assay [1] is 8.70. In addition, the pEC50 in assay [2] was 7.57.
`Cc1c(C#N)cccc1[C@H](Nc1cc(C#N)c2ncc(C#N)c(NCC(C)(C)C(F)(F)F)c2c1)c1cn(C23CC(C2)C3)nn1` [Example 1151, (S)-6-(((1-(bicyclo[1.1.1]pentan-1-yl)-1H-1,2,3-triazol-4-yl)(3-cyano-2-methylphenyl)methyl)amino)-4-((3,3,3-trifluoro-2,2-dimethylpropyl)amino) quinoline-3,8-dicarbonitrile]: the pIC50 in assay [1] is 8.70. For the same molecule, the pEC50 in assay [2] is 7.44.
Turning to `Cc1c(C#N)cccc1[C@H](Nc1cc(C#N)c2ncc(C#N)c(NCC(C)(C)C(F)(F)F)c2c1)c1cn(C2(C3CC3)CC2)nn1` [Example 1152, (S)-6-(((1-([1,1'-bi(cyclopropan)]-1-yl)-1H-1,2,3-triazol-4-yl)(3-cyano-2-methylphenyl)methyl)amino)-4-((3,3,3-trifluoro-2,2-dimethylpropyl)amino)quinoline-3,8-dicarbonitrile], in assay [1], the pIC50 was 8.52. Moreover, the negative logarithm of the EC50 (pEC50) in assay [2] is 7.31.
For `Cc1c(-c2cn[nH]c2)cccc1[C@H](Nc1cc(C#N)c2ncc(C#N)c(NCC(C)(C)C)c2c1)c1cn(C2(C(F)F)CC2)nn1` [Example 1153, (S)-6-(((1-(1-(difluoromethyl)cyclopropyl)-1H-1,2,3-triazol-4-yl)(2-methyl-3-(1H-pyrazol-4-yl)phenyl)methyl)amino)-4-(neopentylamino)quinoline-3,8-dicarbonitrile] the same measures were 8.70 and 7.38.
In the same order, the values of `Cc1c(-c2cncn2C)cccc1[C@H](Nc1cc(C#N)c2ncc(C#N)c(NCC(C)(C)C)c2c1)c1cn(C2(C(F)F)CC2)nn1` [Example 1154, (S)-6-(((1-(1-(difluoromethyl)cyclopropyl)-1H-1,2,3-triazol-4-yl)(2-methyl-3-(1-methyl-1H-imidazol-5-yl)phenyl)methyl)amino)-4-(neopentylamino)quinoline-3,8-dicarbonitrile] are 8.70 and 7.35.
As for `Cc1c(-c2ccnnc2)cccc1[C@H](Nc1cc(C#N)c2ncc(C#N)c(NCC(C)(C)C)c2c1)c1cn(C2(C(F)F)CC2)nn1` [Example 1155, (S)-6-(((1-(1-(difluoromethyl)cyclopropyl)-1H-1,2,3-triazol-4-yl)(2-methyl-3-(pyridazin-4-yl)phenyl)methyl)amino)-4-(neopentylamino)quinoline-3,8-dicarbonitrile], the pIC50 in assay [1] is 9.00. Further, the negative logarithm of the EC50 (pEC50) in assay [2] was 7.22.
With `Cc1c(C#N)cccc1[C@H](Nc1cc(C#N)c2ncc(C#N)c(NCC(C)(C)C)c2c1)c1cn(C23CC(C2)C3)nn1` [Example 1156, (S)-6-(((1-(bicyclo[1.1.1]pentan-1-yl)-1H-1,2,3-triazol-4-yl)(3-cyano-2-methylphenyl)methyl)amino)-4-(neopentylamino)quinoline-3,8-dicarbonitrile], in assay [1], the pIC50 is 9.00. In addition, the pEC50 in assay [2] was 7.89.
Turning to `Cc1c(C#N)cccc1[C@H](Nc1cc(C#N)c2ncc(C#N)c(NCC(C)(C)C)c2c1)c1cn(C2(C3CC3)CC2)nn1` [Example 1157, (S)-6-(((1-([1,1'-bi(cyclopropan)]-1-yl)-1H-1,2,3-triazol-4-yl)(3-cyano-2-methylphenyl)methyl)amino)-4-(neopentylamino)quinoline-3,8-dicarbonitrile], in assay [1], the pIC50 is 8.52. The pEC50 in assay [2] is 7.82.
In the same order, the values of `Cc1c(-c2cnco2)cccc1[C@H](Nc1cc(C#N)c2ncc(C#N)c(NCC(C)(C)C)c2c1)c1cn(C2(C(F)F)CC2)nn1` [Example 1158, (S)-6-(((1-(1-(difluoromethyl)cyclopropyl)-1H-1,2,3-triazol-4-yl)(2-methyl-3-(oxazol-5-yl)phenyl)methyl)amino)-4-(neopentylamino)quinoline-3,8-dicarbonitrile] are 8.70 and 7.59.
Consider `CC(C)(C)CNc1c(C#N)cnc2c(C#N)cc(N[C@@H](c3ccccc3Cl)c3nnn(C4(C)CC4)c3F)cc12` [Example 1159, (S)-6-(((2-chlorophenyl)(5-fluoro-1-(1-methylcyclopropyl)-1H-1,2,3-triazol-4-yl)methyl)amino)-4-(neopentylamino)quinoline-3,8-dicarbonitrile], for which the pIC50 in assay [1] is 7.30. Also, the pEC50 in assay [2] was 6.38.
`COc1c([C@@H](Nc2cc(C#N)c3ncc(C#N)c(NCC(C)(C)C)c3c2)c2ccccc2Cl)nnn1C1(C)CC1` [Example 1160, (S)-6-(((2-chlorophenyl)(5-methoxy-1-(1-methylcyclopropyl)-1H-1,2,3-triazol-4-yl)methyl)amino)-4-(neopentylamino)quinoline-3,8-dicarbonitrile]: the pIC50 in assay [1] was 7.15. Besides, the pEC50 in assay [2] is 6.03.

For the origin of these results see patent publication US10316017B2, “COT modulators and methods of use thereof” (Gilead Sciences, Inc., priority 2015, dated 2019).
